We go through 11 molecules from PMC2654408 (PLoS ONE, 2009).

Several values for one entry are separate records, joined by “and”; a condition that tells them apart may be missing. Identical values can stand only once. Like-named read-outs stand apart in the source and are kept apart here. Where no end group is shown, it is not given here.

Assay [1] addresses T1, α7-nAChR (Homo sapiens, UniProt P36544).
T1 construct: host or cells: GH4-hα7 (rat pituitary tumor GH4 cells stably transfected with human α7-nAChR)
The assay can be described thus: Saturation binding on cell membranes after chronic 24 hr peptide treatment of GH4-hα7 cells. The format is cell-based. To be noted: 24 hr treatment with 100 nM peptide; read-out: Kd±SEM, receptor affinity for α-BTX. How it is done: (§1) For membrane binding experiments, confluent cells were scraped off 75 cm^2 culture plates into ice-cold lysis buffer (20 mM Tris-HCl, pH 7.0, 5 mM ethylenediaminetetraacetic acid (EDTA), and 1× protease inhibitor cocktail (Roche Diagnostics, Ltd.,West Sussex, UK). After pelleting by centrifugation for 10 min at 13,000 rpm, cells were resuspended in 7 ml ice-cold lysis buffer, lysed by Dounce homogenization, and then centrifuged at 1000×g for 10 min. Supernatant was removed and the extraction process repeated. The supernatants were combined and centrifuged at 50,000 rpm (70 Ti rotor) for 30 min (Beckman Ultracentrifuge). All centrifugations were carried out at 4°C. The pelleted membranes were resuspended in binding buffer (50 mM Tris-HCl, 120 mM NaCl, 5 mM KCl, 1 mM MgCl2, 2.5 mM CaCl2, pH 7.0) and protein concentration determined using the DC Protein Assay kit (Bio-Rad Laboratories, Ltd., Hemel Hempstead, UK). Binding assays were assembled on ice in borosilicate glass test tubes with 50–100 µg membrane protein in binding buffer in a final volume of 250 µl. Binding reactions were incubated at 4°C overnight, and then terminated by rapid vacuum filtration using a Brandel Cell Harvester onto Whatman GF/B glass fibre filters pre-soaked in 0.4% polyethylenimine. Saturation binding experiments were performed with [^125I]α-BTX concentrations ranging from 0.03–100 nM. Displacement binding experiments were performed with a constant [^125I]α-BTX concentration of 2.0 nM. Non-specific binding was determined with 10 µM MLA.
(§2) Ligand binding data were analyzed using GraphPad Prism 4.03 (GraphPad Software, Inc.) Saturation binding data were fitted by nonlinear regression with a hyperbolic function for a one-binding site model. […] RT-PCR band density data was analysed using Student's t-test for comparison of individual means with control values and by one-way ANOVA followed by Tukey's multiple comparison test for comparison of test groups and effect of MLA inhibition effects.

Assay [2] addresses T1, α7-nAChR. The assay can be described thus: biochemical. The assay is classed as binding. The following applies: for [125I]α-BTX binding compared with control maximum specific binding: Mean±SEM. The protocol:
as §1
(§3) Ligand binding data were analyzed using GraphPad Prism 4.03 (GraphPad Software, Inc.) Saturation binding data were fitted by nonlinear regression with a hyperbolic function for a one-binding site model. Displacement binding data were fitted by nonlinear regression for a one-site binding competition model, unless otherwise noted. RT-PCR band density data was analysed using Student's t-test for comparison of individual means with control values and by one-way ANOVA followed by Tukey's multiple comparison test for comparison of test groups and effect of MLA inhibition effects.

The next assay deals with α7-nAChR mRNA expression. As to the kind of experiment: RT-PCR analysis of α7-nAChR mRNA expression in GH4-hα7 cells. The format is cell-based, human. How it is done: To assess the effects of T-AChE C-terminal peptides on α7-nAChR mRNA expression, total cellular RNA was isolated and analysed for gene-specific expression levels using reverse transcriptase PCR. Specifics of primer design and sequences used in RT-PCR experiments are described in the methods. […] Expression of the housekeeping gene glyceraldehyde 3-phosphate dehydrogenase (GAPDH) was used as a standard for comparative analysis. RT-PCR analysis was performed in control GH4-hα7 cells and those exposed to AChE peptides at concentrations ranging from 1 nM to 1 µM for 24 hr (Fig. 5A). […] A similar high level of α7-nAChR expression was achieved after treatment with only 1 nM T30.
as §2
Primers for RNA analysis were designed using the Primer3 program and analysed for structural anomalies and dimer formation using NetPrimer software (Premier Biosoft International, Palo Alto, USA). […]

The target in assay [3] is human alpha-7 nicotinic acetylcholine receptor (human) (UniProt P36544). As to the kind of experiment: radioligand binding.
Chain of human alpha-7 nicotinic acetylcholine receptor (human) (P36544 23-502): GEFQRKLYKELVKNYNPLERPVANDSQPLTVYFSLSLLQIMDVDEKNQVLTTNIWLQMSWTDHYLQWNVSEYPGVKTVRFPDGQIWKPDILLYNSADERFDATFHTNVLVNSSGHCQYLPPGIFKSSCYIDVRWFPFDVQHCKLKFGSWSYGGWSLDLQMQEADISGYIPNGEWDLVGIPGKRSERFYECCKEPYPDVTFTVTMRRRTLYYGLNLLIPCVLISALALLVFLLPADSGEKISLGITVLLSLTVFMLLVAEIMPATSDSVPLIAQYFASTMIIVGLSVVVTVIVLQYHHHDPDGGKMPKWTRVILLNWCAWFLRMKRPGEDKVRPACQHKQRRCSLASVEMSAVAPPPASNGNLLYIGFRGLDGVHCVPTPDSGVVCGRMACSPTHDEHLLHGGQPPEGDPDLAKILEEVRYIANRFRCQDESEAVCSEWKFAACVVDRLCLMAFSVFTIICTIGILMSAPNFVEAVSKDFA
For assay [4] the target is unchanged.
The target in assay [5] is T1, α7-nAChR. The assay can be described thus: Acute live cell [125I]α-BTX binding in GH4-hα7 cells. The following applies: for efficacy in competition with [125I]α-BTX for receptor binding sites: 10 µM peptide. How it is done:
Initial experiments were performed to characterize the binding parameters of the human α7-nAChR heterologously expressed in the rat GH4-hα7 cell line using a live-cell binding method. Saturation binding was carried out with [^125I]alpha-bungarotoxin ([^125I]α-BTX) concentrations ranging from 0.03 nM to 100 nM. Non-specific binding was determined in the presence of 10 µM methyllycaconitine (MLA).
For live cell binding experiments, cells were seeded into 6-well plates at a density of 1×10^5 cells/well and allowed to recover for 24–48 hours before experimentation. Cells were treated with indicated peptides or α7-nAChR ligands for 30 min at 37°C in cell medium containing 1% FBS. Then [^125I]α-bungarotoxin ([^125I]α-BTX; 150 Ci/mmol) was added and cells were incubated at 37°C for a further 1.5 hr. Cell layers were washed 3× with 2 ml serum-free DMEM, then 0.5 ml 1 M NaOH was added to each well to lyse cells. Cell lysates were transferred to 5 ml scintillation fluid and radioactivity was determined using a Beckman LS6000IC scintillation counter.
as §3

Assay [6] addresses T2, human alpha-7 nicotinic acetylcholine receptor (human, UniProt P36544 23-502).
T2 construct: human alpha-7 nicotinic acetylcholine receptor, heterologously expressed in the rat GH4-hα7 cell line; Used on live cells and as purified membranes of the same cell line; also called α7-nAChR; CHRNA7; source: on live cells and in purified cell membranes
The assay can be described thus: radioligand binding. The following applies: one partner purified.

In assay [7] the target is T2, human alpha-7 nicotinic acetylcholine …. The assay can be described thus: radioligand binding. The following applies: one partner purified. This is another data set of the same source.
Setting [8] is: live cells, [125I]α-BTX displacement, read-out: Ki, high affinity site.

T1 sequence (P36544 23-502): as above
T2 sequence (P36544 23-502): as above

One may read the Kd as the equilibrium constant for the complex coming apart. Regarding NQFDHYSKQERCSDL [T15], the Kd at α7-nAChR [1] came to 4.91 ± 0.53 nM.

A word on the IC50: it is the concentration needed to halve the response being measured. As to `CCN1C[C@]2(COC(=O)c3ccccc3N3C(=O)C[C@H](C)C3=O)CC[C@H](OC)[C@@]34[C@@H]5C[C@H]6[C@H](OC)[C@@H]5[C@](O)(C[C@@H]6OC)[C@@](O)([C@@H](OC)[C@H]23)[C@@H]14` [MLA, methyllycaconitine], the “decrease in specific binding efficacy in the presence of T30 compared with ligand alone” value (shortened to “decrease in specific binding efficacy”) on α7-nAChR [2] worked out at 24%. Further, on α7-nAChR [2] (IC50), the IC50 is 15.5 nM and 9.5 nM. Moreover, the “α7-nAChR mRNA expression, relative band density” value in the assay on α7-nAChR mRNA expression came to 1.58±0.12.

In assay [3], AChE C-terminal peptide T30 registered a Ki, high affinity site of 0.0168 nM and a Ki, second, lower affinity site of 47.1 nM. In assay [4], this molecule showed a α7-nAChR mRNA expression by RT-PCR (relative band density against GAPDH) in GH4-hα7 cells after 24 hr with 1 nM to 1 µM T30 (relative band density) of 2.98.

Broadly, the Ki is the equilibrium dissociation constant of an inhibitor or competing ligand from its target. Turning to AEFHRWSSYMVHWK [T14], the “[125I]α-BTX binding compared with control maximum specific binding” value at α7-nAChR [2] (membranes, 1 µM peptide) came to 90.11±3.5%; on α7-nAChR [2] (membranes, 10 µM peptide), 87.91±1.9%. The “efficacy in competition with [125I]α-BTX for receptor binding sites” value at α7-nAChR [5] (live cells) is listed as “approximately 40%”. The inhibition constant Ki on α7-nAChR [5] (setting [8]) is 0.653 ± 0.0126 nM. In addition, the Kd on α7-nAChR [1] was found to be 9.06 ± 0.93 nM.

On to AChE C-terminal peptide T14, for which, in assay [4], the α7-nAChR mRNA expression by RT-PCR (relative band density against GAPDH) in GH4-hα7 cells after 24 hr with 1 nM to 1 µM T14 (relative band density) worked out at 2.72.

With KAEFHRWSSYMVHWKNQFDHYSKQERCSDL [T30], the “[125I]α-BTX binding compared with control maximum specific binding” value on α7-nAChR [2] (membranes, 1 µM peptide) was 110.9±3.6%; on α7-nAChR [2] (membranes, 10 µM peptide), 117.3±4.9%. Besides, the “efficacy in competition with [125I]α-BTX for receptor binding sites” value on α7-nAChR [5] (live cells) turned out to be 70%. For the same molecule, the Ki was 0.0168 ± 0.0018 nM at α7-nAChR [5] (setting [8]) and 47.1 ± 2.8 nM on α7-nAChR [5] (live cells, two-site competition model, read-out: Ki, second lower affinity site). The Kd at α7-nAChR [1] is 12 ± 1.39 nM.

In the case of `CC(=O)OCC[N+](C)(C)C` [ACh, acetylcholine], the “decrease in specific binding efficacy” value at α7-nAChR [2] (membranes, ligand at its EC50, varying concentrations of T30) was determined as 18%.

For `C[N+](C)(C)CCO` [Choline, choline], the “decrease in specific binding efficacy” value at α7-nAChR [2] is given as 36%. The IC50 against α7-nAChR [2] (IC50±SEM) is 123000 nM and 126000 nM and 225000 nM and 357000 nM and 737000 nM. Besides, at α7-nAChR [2] (Ki±SEM), the Ki was 85900 nM and 88900 nM and 157000 nM and 250000 nM and 515000 nM.

As to “[^125I]alpha-bungarotoxin [[^125I]α-BTX]”, on α7-nAChR [5], the Bmax stood at 965.8±28.9 fmol/mg protein and the Kd came out at 4.68 ± 0.61 nM.

B1: T-AChE: full-length tailed isoform of acetylcholinesterase (protein)
chain: EGREDAELLVTVRGGRLRGIRLKTPGGPVSAFLGIPFAEPPMGPRRFLPPEPKQPWSGVVDATTFQSVCYQYVDTLYPGFEGTEMWNPNRELSEDCLYLNVWTPYPRPTSPTPVLVWIYGGGFYSGASSLDVYDGRFLVQAERTVLVSMNYRVGAFGFLALPGSREAPGNVGLLDQRLALQWVQENVAAFGGDPTSVTLFGESAGAASVGMHLLSPPSRGLFHRAVLQSGAPNGPWATVGMGEARRRATQLAHLVGCPPGGTGGNDTELVACLRTRPAQVLVNHEWHVLPQESVFRFSFVPVVDGDFLSDTPEALINAGDFHGLQVLVGVVKDEGSYFLVYGAPGFSKDNESLISRAEFLAGVRVGVPQVSDLAAEAVVLHYTDWLHPEDPARLREALSDVVGDHNVVCPVAQLAGRLAAQGARVYAYVFEHRASTLSWPLWMGVPHGYEIEFIFGIPLDPSRNYTAEEKIFAQRLMRYWANFARTGDPNEPRDPKAPQWPPYTAGAQQYVSLDLRPLEVRRGLRAQACAFWNRFLPKLLSATDTLDEAERQWKAEFHRWSSYMVHWKNQFDHYSKQDRCSDL
With B1, in the assay with α7-nAChR mRNA expression (10 nM protein, 24 hr), the “change in α7-nAChR mRNA expression” value was “neither the full length T-AChE molecule (p = 0.3419), nor the truncated T548 (p = 0.1778), effected a significant change”. In addition, the “effect on [125I]α-BTX binding to the α7-nAChR” value in the assay with α7-nAChR [5] (live cells, controls (Fig. 2D)) is listed as “neither full-length T-AChE, nor truncated T548, had an effect”.

B2: [125I]alpha-bungarotoxin (ligand)
chain: IVCHTTATSPISAVTCPPGENLCYRKMWCDAFCSSRGKVVELGCAATCPSKKPYEEVTCCSTDKCNPHPKQRPG
For the molecule B2, the Kd in assay [6] was 4.68 nM; in assay [7] it was 4.66 nM and 9.06 nM and 12 nM and 4.91 nM.
